Test system: calf thymus double stranded DNA and ribosomal RNA
Assay: Determination of DNA/RNA fluorescence ratios
Type: binding
Conditions: for DNA/RNA (fluorescence ratio): 65 ug/mL calf thymus dsDNA vs 65 ug/mL ribosomal RNA, 10 mM Tris, 1 mM EDTA pH 7.5, ratio of 1 = no selectivity; for ex/em: emission: emission value, second number of ex/em cell; for ex/em: excitation: excitation value, first number of ex/em cell
Procedure: The tested compound was dissolved as a stock solution in DMSO at a concentration of about 0.1-1.0 mg/mL. The exact concentration is not critical. Three tubes are prepared, each containing the same 1-20 uL of stock solution. The first tube contained 10 mM Tris, 1 mM EDTA (pH 7.5) buffer; the second tube contained buffer and 65 ug/mL calf thymus double stranded DNA; and the third tube contained buffer and 65 ug/mL ribosomal RNA. The tubes were incubated at room temperature for 10-15 minutes with protection from light.
In some cases, it was necessary to dilute the sample to keep the fluorescence signal on-scale. In these cases, all three samples were diluted to the same degree. The ratio of the fluorescence of the compound in the presence of DNA and RNA was determined.
The following compounds were selected as representative of the inventive class of compounds. The fluorescence values in the presence of DNA and RNA were determined as described in the previous Example. […] A ratio of 1 would indicate no selectivity. Excitation and emission values are in nm

ex/em: emission [nm]	ex/em: excitation [nm]	SMILES	DNA/RNA (fluorescence ratio)
527	497	CCCN(CCCN(C)C)C1=CC(=Cc2sc3cc(-c4c(OC)cccc4OC)ccc3[n+]2C)c2ccccc2N1c1ccccc1 [Compound 28]	6.5
666	652	CCOC(=O)CCCOc1cccc(CN2C=CC(=CC=Cc3sc4cc(-c5ccccc5)ccc4[n+]3C)c3ccccc32)c1 [Compound 104]	9
545	515	COc1cccc(OC)c1-c1ccc2c(c1)sc(C=C1C=CN(Cc3cc[n+](C)cc3)c3ccccc31)[n+]2C [Compound 56]	3.7
517	498	COC1=CC(=Cc2sc3cc(-c4c(OC)cccc4OC)ccc3[n+]2C)c2ccccc2N1Cc1ccccc1 [Compound 32]	36
523	498	CCCN(CCCN(C)C)C1=CC(=Cc2sc3cc(-c4c(C)cccc4C)ccc3[n+]2C)c2ccccc2N1c1ccccc1 [Compound 68]	7
533	505	COc1cccc(OC)c1-c1ccc2c(c1)sc(C=C1C=C(N(C)CCN(C)C)N(Cc3ccccc3)c3ccccc31)[n+]2C [Compound 18]	3.5
530	510	CN1C(=Cc2cc[n+](C)c3ccccc23)Sc2ccccc21 [Thiazole orange, reference compound]	1
532	504	CCCN(CCCN(C)C)C1=CC(=Cc2sc3cc(-c4c(OC)cccc4OC)ccc3[n+]2C)c2ccccc2N1Cc1ccccc1 [Compound 16]	15.2
527	503	CCCN(CCCN(C)C)C1=CC(=Cc2sc3cc(C(COC)COC)ccc3[n+]2C)c2ccccc2N1Cc1ccccc1 [Compound 101]	3
536	506	COc1cccc(OC)c1-c1ccc2c(c1)sc(C=C1C=CN(C)c3ccccc31)[n+]2C [Compound 65]	11.3
541	505	CCCCC1=CC(=Cc2sc3cc(-c4c(OC)cccc4OC)ccc3[n+]2C)c2ccccc2N1Cc1ccccc1 [Compound 26]	36

The remaining lines, values behind:

SMILES	ex/em: emission [nm]	ex/em: excitation [nm]	DNA/RNA (fluorescence ratio)
CCCN(CCCN(C)C)C1=CC(=Cc2sc3cc(-c4c(OC)cccc4OC)ccc3[n+]2C)c2cc(OC)ccc2N1Cc1ccccc1 [Compound 39]	536	507	6.1
CCCCn1cc(N2C(N(CCC)CCCN(C)C)=CC(=Cc3sc4cc(-c5c(OC)cccc5OC)ccc4[n+]3C)c3ccccc32)nn1 [Compound 57]	536	506	3.8
CCCN(CCCN(C)C)C1=CC(=Cc2sc3cc(-c4c(OC)cccc4OC)ccc3[n+]2C)c2ccc(OC)cc2N1Cc1ccccc1 [Compound 38]	522	497	13
COc1cccc(OC)c1-c1ccc2c(c1)sc(C=C1C=CN(CCc3ccccc3)c3ccccc31)[n+]2C [Compound 62]	539	510	48
C[n+]1c(C=C2C=CN(Cc3ccccc3)c3ccccc32)sc2cc(-c3ccc(O)cc3)ccc21 [Compound 100]	551	513	8.1
COc1cccc(OC)c1-c1ccc2c(c1)sc(C=C1C=CN(Cc3ccccc3)C(SCCCN(C)C)=C1)[n+]2C [Compound 102]	515	475	3.3
CNCCCN(C)C1=CC(=Cc2sc3cc(-c4c(OC)cccc4OC)ccc3[n+]2C)c2ccccc2N1Cc1ccccc1 [Compound 23]	529	500	3.8
COc1cccc(OC)c1-c1ccc2c(c1)sc(C=C1C=CN(Cc3ccc(C[N+](C)(C)C)cc3)c3ccccc31)[n+]2C [Compound 48]	540	513	7.3
CCCN(CCC[N+](C)(C)C)C1=CC(=Cc2sc3cc(-c4c(OC)cccc4OC)ccc3[n+]2C)c2ccccc2N1Cc1ccccc1 [Compound 31]	534	505	10.5
CCOC(=O)CCCOc1cccc(CN2C=C/C(=C\c3sc4cc(-c5c(OC)cccc5OC)ccc4[n+]3C)c3ccccc32)c1 [Compound 112]	541	500	191
C[n+]1c(C=C2C=CN(Cc3ccccc3)c3ccccc32)sc2cc(-c3cccs3)ccc21 [Compound 96]	555	527	8
C[n+]1c(C=CC=C2C=CN(Cc3ccccc3)c3ccccc32)sc2cc(-c3ccccc3)ccc21 [Compound 103]	537	507	3.1
COc1cccc(OC)c1-c1ccc2c(c1)sc(C=C1C=CN(Cc3ccc(C[N+](C)(C)CCC[N+](C)(C)C)cc3)c3ccccc31)[n+]2C [Compound 49]	542	520	18
COc1cccc(OC)c1-c1ccc2c(c1)sc(C=C1C=CN(Cc3ccc(C[N+](C)(C)CCCN(C)C)cc3)c3ccccc31)[n+]2C [Compound 46]	542	512	11.5
CC(=O)Nc1ccccc1-c1ccc2c(c1)sc(C=C1C=CN(Cc3ccccc3)c3ccccc31)[n+]2C [Compound 94]	530	513	2.1
CCCN(CCCN(C)C)C1=CC(=Cc2sc3cc(-c4c(OC)cccc4OC)ccc3[n+]2C)c2ccccc2N1C [Compound 30]	527	495	5.7
C[n+]1c(C=C2C=CN(Cc3ccccc3)c3ccccc32)sc2cc(-c3cc4ccccc4s3)ccc21 [Compound 95]	591	550	1.9
CCN(CC)Cc1ccc(C2=CC(=Cc3sc4cc(-c5c(OC)cccc5OC)ccc4[n+]3C)c3ccccc3N2Cc2ccccc2)cc1 [Compound 25]	559	518	9
C[n+]1c(C=C2C=CN(Cc3ccccc3)c3ccccc32)oc2ccc(-c3ccccc3)cc21 [Compound 89]	512	485	1.8
C[n+]1c(C=C2C=CN(Cc3ccccc3)c3ccccc32)sc2cc(-c3ccccc3)ccc21 [Compound 92]	501	458	1

Reference: patent publication US9366676B2, “Fluorescent chemical compounds having high selectivity for double stranded DNA, and methods for their use” (LIFE TECHNOLOGIES CORPORATION, priority 2005, dated 2016)
